Source: patent US20100152434A1, “Protein Kinase-binding Nucleosides and Associated Methods” (priority 2007, published 2010)

Tests used:
Experiment in all cases: SignalChem radioisotope protein kinase assay
Type in all cases: biochemical
Conditions in all cases: 5 μl of 100 μM stock solution in 25 μl
NEK6 = NEK6 (Homo sapiens, UniProt Q9HC98)
Excerpt: (§1) The various protein kinase targets to be employed in the kinase profiling assay were cloned, expressed and purified in-house at SignalChem (Richmond, BC, Canada) using proprietary methods. Quality control testing is routinely performed on each of the SignalChem targets to ensure compliance to acceptable standards. Protein substrates employed in the target profiling process were synthesized internally. ^33P-ATP was purchased from PerkinElmer. All other materials were of standard grade. Compound 10 (FIG. 4) was supplied to SignalChem in a powder form. It was reconstituted in DMSO to form a stock solution which was then diluted with 10% DMSO to form a working stock solution (100 μM) that was then profiled against the various protein kinase targets. The assay conditions for the various protein kinase targets were optimized to yield acceptable enzymatic activity. In addition, the assays were optimized to give high signal-to-noise ratio.
(§2) SignalChem uses a radioisotope assay format for profiling evaluation of protein kinase targets. Protein kinase assays were performed in triplicate at ambient temperature for 20-40 min (depending on the target) in a final volume of 25 μl according to the following assay reaction recipe: • Component 1: 5 μl of diluted active protein kinase target (˜10-40 nM final protein concentration in the assay) • Component 2: 5 μl of stock solution of substrate (1-5 μg of peptide or protein substrate) • Component 3: 5 μl of kinase assay buffer or protein kinase activator in kinase assay buffer • Component 4: 5 μl of Compound 10 (100 μM stock solution) or 10% DMSO • Component 5: 5 μl of 33P-ATP (25 μM stock solution, 0.8 μCi)
(§3) The assay was initiated by the addition of ^33P-ATP and the reaction mixture incubated at ambient temperature for 20-40 minutes, depending on the protein kinase target. After the incubation period, the assay was terminated by spotting 10 μl of the reaction mixture onto a Millipore Multiscreen plate. The Millipore Multiscreen plate was washed 3 times for approximately 15 minutes each in a 1% phosphoric acid solution. The radioactivity on the P81 plate was counted in the presence of scintillation fluid in a Trilux scintillation counter. Blank control, which included all the assay components except the addition of the appropriate substrate (replaced with equal volume of assay dilution buffer), was set up for each protein kinase target. The corrected activity for each protein kinase target was determined by removing the blank control value.

PAK2 = PAK2 (Homo sapiens, UniProt Q13177)
Excerpt: as §1, §2, §3

c-KIT = c-KIT (Homo sapiens, UniProt P10721)
Sequence of c-KIT (P10721 26-976): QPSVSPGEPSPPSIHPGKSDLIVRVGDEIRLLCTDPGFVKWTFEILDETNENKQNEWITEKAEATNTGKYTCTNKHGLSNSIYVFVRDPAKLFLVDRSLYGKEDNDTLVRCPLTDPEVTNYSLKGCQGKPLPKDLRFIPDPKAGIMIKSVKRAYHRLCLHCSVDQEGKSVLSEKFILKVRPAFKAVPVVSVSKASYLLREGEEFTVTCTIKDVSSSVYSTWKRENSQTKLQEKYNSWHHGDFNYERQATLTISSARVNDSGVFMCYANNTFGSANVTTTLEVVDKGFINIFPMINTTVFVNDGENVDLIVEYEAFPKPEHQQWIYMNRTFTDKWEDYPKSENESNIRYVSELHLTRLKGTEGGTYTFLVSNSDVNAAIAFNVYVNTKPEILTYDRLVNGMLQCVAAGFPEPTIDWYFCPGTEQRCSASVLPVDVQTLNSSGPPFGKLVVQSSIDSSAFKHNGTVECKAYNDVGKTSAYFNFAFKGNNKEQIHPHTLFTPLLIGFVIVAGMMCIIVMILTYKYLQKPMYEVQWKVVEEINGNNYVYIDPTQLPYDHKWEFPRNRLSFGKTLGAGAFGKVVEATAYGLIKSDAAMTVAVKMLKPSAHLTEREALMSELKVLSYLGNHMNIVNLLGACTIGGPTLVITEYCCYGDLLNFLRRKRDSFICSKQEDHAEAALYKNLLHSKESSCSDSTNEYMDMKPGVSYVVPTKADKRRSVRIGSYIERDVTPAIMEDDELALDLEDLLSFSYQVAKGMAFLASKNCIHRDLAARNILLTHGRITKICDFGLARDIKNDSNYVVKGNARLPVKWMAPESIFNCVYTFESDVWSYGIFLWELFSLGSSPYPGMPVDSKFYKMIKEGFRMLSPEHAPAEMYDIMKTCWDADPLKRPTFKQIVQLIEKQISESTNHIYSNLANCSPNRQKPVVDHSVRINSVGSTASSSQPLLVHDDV
Excerpt: as §1, §2, §3

ERK2 = ERK2 (Homo sapiens, UniProt P28482)
Excerpt: as §1, §2, §3

p38β = p38β (Homo sapiens, UniProt Q15759)
Excerpt: as §1, §2, §3

PAK3 = PAK3 (Homo sapiens, UniProt O75914)
Excerpt: as §1, §2, §3

TRKA = target: T1, TRKA (Homo sapiens, UniProt P04629)
T1 construct: purchased SignalChem
Excerpt: as §1, §2, §3

RAF1(EE) = target: T2, RAF1(EE) (Homo sapiens, UniProt P04049, Y340E/Y341E)
T2 construct: purchased SignalChem
Excerpt: as §1, §2, §3

LCK = LCK (Homo sapiens, UniProt P06239)
Excerpt: as §1, §2, §3

AKT2 = AKT2 (Homo sapiens, UniProt P31751)
Sequence of AKT2 (P31751 whole entry, species assumed): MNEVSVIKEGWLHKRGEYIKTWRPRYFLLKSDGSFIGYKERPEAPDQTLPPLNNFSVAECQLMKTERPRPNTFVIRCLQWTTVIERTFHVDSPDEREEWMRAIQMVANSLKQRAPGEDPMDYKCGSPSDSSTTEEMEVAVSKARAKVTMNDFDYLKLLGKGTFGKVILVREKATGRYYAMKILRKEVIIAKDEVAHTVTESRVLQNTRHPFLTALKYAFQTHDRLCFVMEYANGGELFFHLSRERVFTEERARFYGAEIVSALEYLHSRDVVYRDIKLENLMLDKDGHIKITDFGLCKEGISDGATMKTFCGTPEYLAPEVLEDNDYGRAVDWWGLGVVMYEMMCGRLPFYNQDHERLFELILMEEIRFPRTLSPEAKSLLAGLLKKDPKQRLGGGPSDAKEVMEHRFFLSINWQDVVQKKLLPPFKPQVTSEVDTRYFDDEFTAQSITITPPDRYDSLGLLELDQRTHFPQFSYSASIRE
Excerpt: as §1, §2, §3

FER = FER (Homo sapiens, UniProt P16591)
Sequence of FER (P16591 whole entry, species assumed): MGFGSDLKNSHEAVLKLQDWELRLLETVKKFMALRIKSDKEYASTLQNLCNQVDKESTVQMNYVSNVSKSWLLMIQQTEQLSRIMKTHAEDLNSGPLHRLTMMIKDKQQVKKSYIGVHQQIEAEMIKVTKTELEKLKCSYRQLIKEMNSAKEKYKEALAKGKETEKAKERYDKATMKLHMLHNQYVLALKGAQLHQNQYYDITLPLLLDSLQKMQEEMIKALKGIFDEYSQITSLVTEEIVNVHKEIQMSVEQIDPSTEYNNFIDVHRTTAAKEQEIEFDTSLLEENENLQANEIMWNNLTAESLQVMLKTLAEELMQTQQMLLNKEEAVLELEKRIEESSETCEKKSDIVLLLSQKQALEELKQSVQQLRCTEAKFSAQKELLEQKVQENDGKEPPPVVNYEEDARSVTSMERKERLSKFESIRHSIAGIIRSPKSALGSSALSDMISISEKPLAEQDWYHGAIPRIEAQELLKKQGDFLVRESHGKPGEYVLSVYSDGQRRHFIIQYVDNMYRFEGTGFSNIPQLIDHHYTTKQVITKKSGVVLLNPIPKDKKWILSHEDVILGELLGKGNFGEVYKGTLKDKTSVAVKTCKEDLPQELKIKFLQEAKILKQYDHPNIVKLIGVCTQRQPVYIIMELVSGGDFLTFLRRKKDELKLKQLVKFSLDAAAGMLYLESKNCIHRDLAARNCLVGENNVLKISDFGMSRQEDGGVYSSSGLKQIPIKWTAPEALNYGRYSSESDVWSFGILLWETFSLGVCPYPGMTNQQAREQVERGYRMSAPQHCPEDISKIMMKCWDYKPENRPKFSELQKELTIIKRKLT
Excerpt: as §1, §2, §3

PDGFRβ = PDGFRβ (Homo sapiens, UniProt P09619)
Sequence of PDGFRβ (P09619 33-1106, species assumed): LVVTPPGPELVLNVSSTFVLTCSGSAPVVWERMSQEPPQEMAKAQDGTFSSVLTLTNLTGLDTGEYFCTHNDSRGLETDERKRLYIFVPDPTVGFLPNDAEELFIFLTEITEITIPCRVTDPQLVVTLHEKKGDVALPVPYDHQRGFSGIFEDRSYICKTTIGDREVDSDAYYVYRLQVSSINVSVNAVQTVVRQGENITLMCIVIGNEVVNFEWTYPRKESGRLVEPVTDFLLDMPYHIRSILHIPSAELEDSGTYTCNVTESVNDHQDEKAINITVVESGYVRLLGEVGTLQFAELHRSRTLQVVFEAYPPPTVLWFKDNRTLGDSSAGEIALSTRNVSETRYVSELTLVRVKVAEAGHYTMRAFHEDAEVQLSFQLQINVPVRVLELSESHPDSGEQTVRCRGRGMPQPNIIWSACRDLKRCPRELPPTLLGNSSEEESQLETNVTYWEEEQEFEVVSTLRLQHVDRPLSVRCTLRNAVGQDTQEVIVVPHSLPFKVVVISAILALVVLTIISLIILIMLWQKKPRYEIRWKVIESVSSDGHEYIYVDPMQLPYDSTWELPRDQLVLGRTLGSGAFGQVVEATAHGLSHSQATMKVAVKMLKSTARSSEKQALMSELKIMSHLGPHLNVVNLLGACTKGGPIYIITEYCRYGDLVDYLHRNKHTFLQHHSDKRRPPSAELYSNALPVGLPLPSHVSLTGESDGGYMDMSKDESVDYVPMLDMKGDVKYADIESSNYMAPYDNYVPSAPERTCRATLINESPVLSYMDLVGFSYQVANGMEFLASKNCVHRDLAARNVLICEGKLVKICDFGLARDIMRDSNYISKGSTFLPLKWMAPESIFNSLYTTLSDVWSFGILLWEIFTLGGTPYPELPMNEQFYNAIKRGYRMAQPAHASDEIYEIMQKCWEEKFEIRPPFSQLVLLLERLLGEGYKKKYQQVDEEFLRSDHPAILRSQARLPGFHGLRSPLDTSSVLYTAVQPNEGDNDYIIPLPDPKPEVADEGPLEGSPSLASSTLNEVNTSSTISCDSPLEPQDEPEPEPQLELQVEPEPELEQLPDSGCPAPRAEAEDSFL
Excerpt: as §1, §2, §3

KDR = KDR (Homo sapiens, UniProt P35968)
Excerpt: as §1, §2, §3

RSK1 = target: T3, RSK1 (Homo sapiens, UniProt Q15418)
T3 construct: purchased SignalChem
Excerpt: as §1, §2, §3

ERK1 = ERK1 (Homo sapiens, UniProt P27361)
Excerpt: as §1, §2, §3

p38δ = p38δ (Homo sapiens, UniProt O15264)
Excerpt: as §1, §2, §3

HER2 = HER2 (Homo sapiens, UniProt P04626)
Excerpt: as §1, §2, §3

PAK4 = PAK4 (Homo sapiens, UniProt O96013)
Excerpt: as §1, §2, §3

ALK4 = ALK4 (Homo sapiens, UniProt P36896)
Excerpt: as §1, §2, §3

FGR = FGR (Homo sapiens, UniProt P09769)
Sequence of FGR (P09769 whole entry, species assumed): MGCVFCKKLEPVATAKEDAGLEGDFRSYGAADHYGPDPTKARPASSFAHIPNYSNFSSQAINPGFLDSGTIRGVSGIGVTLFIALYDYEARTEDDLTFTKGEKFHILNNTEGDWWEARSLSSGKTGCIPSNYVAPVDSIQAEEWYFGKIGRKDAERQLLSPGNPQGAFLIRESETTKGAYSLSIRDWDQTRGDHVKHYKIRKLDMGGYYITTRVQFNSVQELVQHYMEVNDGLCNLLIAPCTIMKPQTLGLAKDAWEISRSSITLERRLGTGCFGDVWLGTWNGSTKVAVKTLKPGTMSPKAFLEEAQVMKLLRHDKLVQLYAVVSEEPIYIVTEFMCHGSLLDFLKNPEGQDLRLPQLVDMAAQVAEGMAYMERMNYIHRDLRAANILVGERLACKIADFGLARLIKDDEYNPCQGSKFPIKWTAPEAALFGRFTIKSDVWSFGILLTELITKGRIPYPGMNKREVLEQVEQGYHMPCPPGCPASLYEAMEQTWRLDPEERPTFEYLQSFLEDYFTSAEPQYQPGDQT
Excerpt: as §1, §2, §3

SRC = target: T4, SRC (Homo sapiens, UniProt P12931)
T4 construct: purchased SignalChem
Excerpt: as §1, §2, §3

FMS = FMS (Homo sapiens, UniProt P07333)
Excerpt: as §1, §2, §3

MST4 = MST4 (Homo sapiens, UniProt Q9P289)
Excerpt: as §1, §2, §3

PIM1 = PIM1 (Homo sapiens, UniProt P11309)
Excerpt: as §1, §2, §3

HCK = HCK (Homo sapiens, UniProt P08631)
Excerpt: as §1, §2, §3

ABL2 = ABL2 (Homo sapiens, UniProt P42684)
Excerpt: as §1, §2, §3

BRAF = BRAF (Homo sapiens, UniProt P15056)
Sequence of BRAF (P15056 whole entry, species assumed): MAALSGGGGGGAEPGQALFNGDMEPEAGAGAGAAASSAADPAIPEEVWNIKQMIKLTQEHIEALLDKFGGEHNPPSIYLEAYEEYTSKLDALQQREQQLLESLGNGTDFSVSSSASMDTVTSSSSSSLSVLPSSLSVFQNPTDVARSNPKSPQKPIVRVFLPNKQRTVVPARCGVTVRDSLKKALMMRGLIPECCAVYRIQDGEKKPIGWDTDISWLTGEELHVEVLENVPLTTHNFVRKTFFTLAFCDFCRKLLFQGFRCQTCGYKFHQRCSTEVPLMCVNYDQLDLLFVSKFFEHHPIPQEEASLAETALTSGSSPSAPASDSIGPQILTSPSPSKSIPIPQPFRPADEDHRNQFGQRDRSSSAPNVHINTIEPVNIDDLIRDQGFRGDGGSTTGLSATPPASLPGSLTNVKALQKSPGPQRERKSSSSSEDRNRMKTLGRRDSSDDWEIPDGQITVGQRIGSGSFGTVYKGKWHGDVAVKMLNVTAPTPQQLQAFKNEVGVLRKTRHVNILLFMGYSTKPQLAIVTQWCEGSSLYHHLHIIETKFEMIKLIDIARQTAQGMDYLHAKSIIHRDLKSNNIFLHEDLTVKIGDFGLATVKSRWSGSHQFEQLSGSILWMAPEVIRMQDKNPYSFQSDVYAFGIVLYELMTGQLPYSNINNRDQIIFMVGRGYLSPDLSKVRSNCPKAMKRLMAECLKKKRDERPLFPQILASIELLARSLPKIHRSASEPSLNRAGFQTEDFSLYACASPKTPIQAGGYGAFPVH
Excerpt: as §1, §2, §3

AKT3 = AKT3 (Homo sapiens, UniProt Q9Y243)
Excerpt: as §1, §2, §3

AKT1 = AKT1 (Homo sapiens, UniProt P31749)
Excerpt: as §1, §2, §3

Sequence of NEK6 (Q9HC98 whole entry, species assumed): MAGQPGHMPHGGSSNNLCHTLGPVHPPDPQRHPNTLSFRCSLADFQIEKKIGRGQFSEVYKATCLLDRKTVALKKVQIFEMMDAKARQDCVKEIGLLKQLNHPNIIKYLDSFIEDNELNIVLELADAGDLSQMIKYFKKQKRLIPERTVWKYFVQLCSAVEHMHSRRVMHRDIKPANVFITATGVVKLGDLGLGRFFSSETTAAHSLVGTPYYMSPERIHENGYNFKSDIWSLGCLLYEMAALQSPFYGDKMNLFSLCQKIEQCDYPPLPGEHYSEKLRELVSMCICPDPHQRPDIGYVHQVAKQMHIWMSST

SMILES: CCOC(=O)C[C@@H]1C(O[Si](C)(C)C(C)(C)C)[C@H](n2cnc3c(NC(=O)Nc4ccccc4)ncnc32)O[C@@H]1CNC(=O)NC (some centres unmarked) [Compound 10]
- % Activity Change (NEK6): 28%
- % Activity Change (PAK2): 16%
- % Activity Change (c-KIT): −6%
- % Activity Change (ERK2): −4%
- % Activity Change (p38β): 15%
- % Activity Change (PAK3): 524%
- % Activity Change (TRKA): −6%
- % Activity Change (RAF1(EE)): 0%
- % Activity Change (LCK): 30%
- % Activity Change (AKT2): 27%
- % Activity Change (FER): −3%
- % Activity Change (PDGFRβ): −7%
- % Activity Change (KDR): 2%
- % Activity Change (RSK1): 4%
- % Activity Change (ERK1): 6%
- % Activity Change (p38δ): 5%
- % Activity Change (HER2): 4%
- % Activity Change (PAK4): −20%
- % Activity Change (ALK4): 2%
- % Activity Change (FGR): 3%
- % Activity Change (SRC): −2%
- % Activity Change (FMS): −17%
- % Activity Change (MST4): 47%
- % Activity Change (PIM1): 51%
- % Activity Change (HCK): 18%
- % Activity Change (ABL2): 8%
- % Activity Change (BRAF): 1%
- % Activity Change (AKT3): 52%
- % Activity Change (AKT1): 2%
